Test [1] concerns spindle assembly checkpoint. Briefly: SAC-Formation - Nocodazole-Induced Assay. Format: cell-based. The conditions noted are these: Homo sapiens; HeLa cells, nocodazole 0.1 μg/ml, 24 h, phosphorylated histone H3 on serine 10. The text has this:
The spindle assembly checkpoint assures the proper segregation of chromosomes during mitosis. Upon entry into mitosis, chromosomes begin to condensate which is accompanied by the phosphorylation of histone H3 on serine 10. Dephosphorylation of histone H3 on serine 10 begins in anaphase and ends at early telophase. Accordingly, phosphorylation of histone H3 on serine 10 can be utilized as a marker of cells in mitosis. Nocodazole is a microtubule destabilizing substance. Paclitaxel is a microtubule stabilizing compound. Thus, nocodazole as well as paclitaxel interfere with microtubule dynamics and mobilize the spindle assembly checkpoint. […] The mitotic breakthrough can be detected by the decrease of cells with phosphorylation of histone H3 on serine 10. This decline is used as a marker to determine the capability of compounds of the present invention to induce a mitotic breakthrough. The typical morphological alteration of nuclei with a prematurely completed mitosis after SAC-inhibition can be monitored via image analysis routines supporting those findings.
The nocodazole and paclitaxel variations were used to focus on compounds that are capable of inhibiting a SAC induced by both microtubule destabilization as well as microtubule stabilization. When SAC inducing agents and compounds are given simultaneously, inhibitors that effectively block the SAC during formation or abrogation are identified. When cells are incubated with a SAC inducing agent and the SAC interfering compound is given after a defined time, inhibitors are identified that effectively block SAC abrogation.
Cultivated cells of the human cervical tumor cell line HeLa (ATCC CCL-2) were plated at a density of 1000 cells/well in a 1536-well microtiter plate in 2 μl PAA Ham's F12 Medium supplemented with 1% (v/v) glutamine, 1% (v/v) penicillin, 1% (v/v) streptomycin and 10% (v/v) fetal calf serum. After incubation overnight at 37° C., 10 μl/well nocodazole at a final concentration of 0.1 μg/ml were added to cells. Test compounds solubilized in dimethyl sulfoxide (DMSO) were added at various concentrations (0 μM, as well as in the range of 0.005 μM-20 μM; the final concentration of the solvent DMSO was 0.5% (v/v)). Cells were incubated for 24 h at 37° C. in the presence of test compounds in combination with nocodazole. Thereafter, cells were fixed in 4% (v/v) paraformaldehyde in phosphate buffered saline (PBS) at 4° C. overnight then permeabilized in 0.1% (v/v) Triton X™ 100 in PBS at room temperature for 20 min and blocked in 0.5% (v/v) bovine serum albumin (BSA) in PBS at room temperature for 15 min. After washing with PBS, 5 μl/well antibody solution (anti-phospho-histone H3 clone 3H10, FITC; Millipore, Cat #16-222; 1:1000 dilution) was added to cells, which were incubated for 2 h at room temperature. Afterwards, cells were washed with PBS and 5 μl/well solution of HOECHST 33342 dye (5 μg/ml) was added to cells and cells were incubated 15 min at room temperature in the dark. Cells were washed twice with PBS then covered with PBS and stored at 4° C. until analysis. Images were acquired with a PERKIN ELMER OPERA™ High-Content Analysis reader. Images were analyzed with image analysis software MetaXpress™ from Molecular devices utilizing the Mitotic Index application module. In this assay both labels HOECHST 33342 and phosphorylated Histone H3 on serine 10 were measured. HOECHST 33342 labels the DNA and is used to count the cell number. The staining of phosphorylated Histone H3 on serine 10 determines the number of mitotic cells. […] Otherwise cells were arrested at G2/M phase of the cell cycle progression. The raw assay data were further analyzed by four-parametric hill equation using Genedata's Assay Analyzer and Condoseo software.

The next test addresses human kinase Mps-1 (Homo sapiens (Human), UniProt P33981). Briefly: Mps-1 kinase assay (TR-FRET). The conditions noted are these: 10 μM ATP; read-out: Mps1 avg (IC50 [mol/l]). Format: biochemical. Here is the method: The human kinase Mps-1 phosphorylates a biotinylated substrate peptide. Detection of the phosphorylated product is achieved by time-resolved fluorescence resonance energy transfer (TR-FRET) from Europium-labelled anti-phospho-Serine/Threonine antibody as donor to streptavidin labelled with cross-linked allophycocyanin (SA-XLent) as acceptor. Compounds are tested for their inhibition of the kinase activity.
N-terminally GST-tagged human full length recombinant Mps-1 kinase (purchased from Invitrogen, Karslruhe, Germany, cat. no PV4071) was used. As substrate for the kinase reaction a biotinylated peptide of the amino-acid sequence biotin-Ahx-PWDPDDADITEILG (C-terminus in amide form, purchased from Biosyntan GmbH, Berlin) was used.
For the assay 50 nl of a 100-fold concentrated solution of the test compound in DMSO was pipetted into a black low volume 384 well microtiter plate (Greiner Bio-One, Frickenhausen, Germany), 2 μl of a solution of Mps-1 in assay buffer [0.1 mM sodium-ortho-vanadate, 10 mM MgCl2, 2 mM DTT, 25 mM Hepes pH 7.7, 0.05% BSA (w/v), 0.001% Pluronic F-127] were added and the mixture was incubated for 15 min at 22° C. to allow pre-binding of the test compounds to Mps-1 before the start of the kinase reaction. Then the kinase reaction was started by the addition of 3 μl of a solution of 16.7 μM adenosine-tri-phosphate (ATP, 16.7 μM=>final conc. in the 5 μl assay volume is 10 μM) and peptide substrate (1.67 μM=>final conc. in the 5 μl assay volume is 1 μM) in assay buffer and the resulting mixture was incubated for a reaction time of 60 min at 22° C. The concentration of Mps-1 in the assay was adjusted to the activity of the enzyme lot and was chosen appropriate to have the assay in the linear range, typical enzyme concentrations were in the range of about 0.5 nM (final conc. in the 5 μl assay volume). The reaction was stopped by the addition of 5 μl of a solution of TR-FRET detection reagents (100 mM Hepes pH 7.4, 0.1% BSA, 40 mM EDTA, 140 nM Streptavidin-XLent [#61GSTXLB, Fa. Cis Biointernational, Marcoule, France], 1.5 nM anti-phospho(Ser/Thr)-Europium-antibody [#AD0180, PerkinElmer LAS, Rodgau-Jugesheim, Germany]. Instead of the 1.5 nM anti-phospho(Ser/Thr)-Europium-antibody a mixture of 2 nM unlabeled anti-phospho ser/thr-pro antibody MPM-2 [Millipore cat. #05-368] and 1 nM LANCE EU-W1024 labeled anti-mouse IgG antibody [Perkin-Elmer, product no. AD0077] can be used).
The resulting mixture was incubated 1 h at 22° C. to allow the binding of the phosphorylated peptide to the anti-phospho(Ser/Thr)-Europium-antibody. Subsequently the amount of phosphorylated substrate was evaluated by measurement of the resonance energy transfer from the Europium-labelled anti-phospho(Ser/Thr) antibody to the Streptavidin-XLent. Therefore, the fluorescence emissions at 620 nm and 665 nm after excitation at 350 nm was measured in a Viewlux TR-FRET reader (PerkinElmer LAS, Rodgau-Jugesheim, Germany). The “blank-corrected normalized ratio” (a Viewlux specific readout, similar to the traditional ratio of the emissions at 665 nm and at 622 nm, in which blank and Eu-donor crosstalk are subtracted from the 665 nm signal before the ratio is calculated) was taken as the measure for the amount of phosphorylated substrate. The data were normalised (enzyme reaction without inhibitor=0% inhibition, all other assay components but no enzyme=100% inhibition).
For orientation: In TR-FRET formats the signal depends on donor and acceptor labels being close together.

This note sets out measurements from patent publication US9682995B2, “Amino-substituted isothiazoles” (BAYER PHARMA AKTIENGESELLSCHAFT, priority 2013, dated 2017).

human kinase Mps-1, sequence (P33981 whole entry): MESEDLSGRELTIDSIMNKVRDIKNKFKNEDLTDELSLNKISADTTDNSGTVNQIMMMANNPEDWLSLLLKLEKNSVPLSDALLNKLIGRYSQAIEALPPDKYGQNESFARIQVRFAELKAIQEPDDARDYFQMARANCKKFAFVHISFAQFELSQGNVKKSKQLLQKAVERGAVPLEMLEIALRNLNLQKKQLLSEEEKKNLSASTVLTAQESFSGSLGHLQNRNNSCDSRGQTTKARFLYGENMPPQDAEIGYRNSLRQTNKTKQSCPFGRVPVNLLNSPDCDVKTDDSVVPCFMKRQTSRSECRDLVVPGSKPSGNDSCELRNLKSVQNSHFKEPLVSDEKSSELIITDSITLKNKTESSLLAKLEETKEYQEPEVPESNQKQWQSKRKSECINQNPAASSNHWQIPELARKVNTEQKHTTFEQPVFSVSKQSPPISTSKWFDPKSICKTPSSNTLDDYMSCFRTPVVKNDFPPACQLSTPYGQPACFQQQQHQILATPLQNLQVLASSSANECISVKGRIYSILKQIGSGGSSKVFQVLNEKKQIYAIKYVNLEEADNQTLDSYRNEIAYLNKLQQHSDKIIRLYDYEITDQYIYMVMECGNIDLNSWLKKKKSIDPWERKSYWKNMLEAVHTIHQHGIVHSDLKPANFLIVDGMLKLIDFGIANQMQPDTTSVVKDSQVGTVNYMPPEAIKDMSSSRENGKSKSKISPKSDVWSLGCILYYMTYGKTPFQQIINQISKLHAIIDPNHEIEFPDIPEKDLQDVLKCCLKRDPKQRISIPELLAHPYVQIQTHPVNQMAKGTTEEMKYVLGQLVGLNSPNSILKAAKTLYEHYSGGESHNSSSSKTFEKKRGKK

Regarding `Cc1nsc(Nc2cncc(C(=O)N(C)C)n2)c1C(=O)Nc1ccc(F)c(F)c1` [Example 104, 6-({4-[(3,4-Difluorophenyl)-carbamoyl]-3-methyl-1,2-thiazol-5-yl}amino)-N,N-dimethyl-pyrazine-2-carboxamide], the IC50 is 0.53 µM in test [1] and over 20 µM on human kinase Mps-1.
Turning to `CCc1ccnc(Nc2snc(C)c2C(=O)Nc2ccccc2CC)n1` [Example 17, N-(2-Ethylphenyl)-5-[(4-ethylpyrimidin-2-yl)amino]-3-methyl-1,2-thiazole-4-carboxamide], the IC50 in test [1] is 6 µM; on human kinase Mps-1 it was over 20 µM.
On the same counts, the results for `CCc1ccccc1NC(=O)c1c(C)nsc1Nc1nccnc1C#N` [Example 34, 5-[(3-Cyanopyrazin-2-yl)amino]-N-(2-ethylphenyl)-3-methyl-1,2-thiazole-4-carboxamide] are 0.95 µM and over 20 µM.
In the case of `COc1ncc(NC(=O)c2c(C)nsc2Nc2ccc(C#N)cn2)cc1C` [Example 120, 5-[(5-Cyanopyridin-2-yl)amino]-N-(6-methoxy-5-methylpyridin-3-yl)-3-methyl-1,2-thiazole-4-carboxamide], the IC50 in test [1] was 0.27 µM; at human kinase Mps-1, over 20 µM.
On the same counts, the results for `Cc1nsc(Nc2ccc(C#N)cn2)c1C(=O)Nc1ccc(OC(C)C)nc1` [Example 110, 5-[(5-Cyanopyridin-2-yl)amino]-N-(6-isopropoxyridin-3-yl)-3-methyl-1,2-thiazole-4-carboxamide] are 0.65 µM and over 20 µM.
For `COC(=O)c1cnc(Nc2snc(C)c2C(=O)Nc2ccc(F)c(F)c2)o1` [Example 97, Methyl 2-({4-[(3,4-difluoro-phenyl)carbamoyl]-3-methyl-1,2-thiazol-5-yl}amino)-1,3-oxazole-5-carboxylate], in that order: 5.9 µM and over 20 µM.
In the case of `CCc1ccccc1NC(=O)c1c(C)nsc1Nc1ccnc(C#N)n1` [Example 6, 5-[(2-Cyanopyrimidin-4-yl)amino]-N-(2-ethylphenyl)-3-methyl-1,2-thiazole-4-carboxamide], the IC50 is 0.68 µM in test [1] and over 20 µM at human kinase Mps-1.
On the same counts, the results for `COc1ccc(NC(=O)c2c(C)nsc2Nc2cnc3cc(C(F)(F)F)ccc3n2)cn1` [Example 45, N-(6-Methoxypyridin-3-yl)-3-methyl-5-{[6-(trifluoromethyl)quinoxalin-2-yl]amino}-1,2-thiazole-4-carboxamide] are 0.054 µM and over 20 µM.
For `CCOC(=O)c1coc(Nc2snc(C)c2C(=O)Nc2ccc(OC)nc2)n1` [Example 100, Ethyl 2-({4-[(6-methoxypyridin-3-yl)carbamoyl]-3 methyl-1,2-thiazol-5-yl}amino)-1,3-oxazole-4-carboxylate], in that order: 5.5 µM and over 20 µM.
`CCOC(=O)c1cnc(Nc2snc(C)c2C(=O)Nc2ccc(OC)nc2)s1` [Example 29, Ethyl 2-({4-[(6-methoxypyridin-3-yl)carbamoyl]-3-methyl-1,2-thiazol-5-yl}amino)-1,3-thiazole-5-carboxylate]: the IC50 in test [1] is 0.31 µM; on human kinase Mps-1, over 20 µM.
With `Cc1nsc(Nc2cnc3ccccc3n2)c1C(=O)Nc1ccc(OC2CCCCC2)nc1` [Example 115, N-[6-(Cyclohexyloxy)pyridin-3-yl]-3-methyl-5-(quinoxalin-2-ylamino)-1,2-thiazole-4-carboxamide], the IC50 in test [1] was 0.09 µM; at human kinase Mps-1 it was over 20 µM.
For `Cc1nsc(Nc2cnc3cc(F)ccc3n2)c1C(=O)Nc1ccc(F)c(F)c1` [Example 46, N-(3,4-Difluorophenyl)-5-[(6-fluoroquinoxalin-2-yl)amino]-3-methyl-1,2-thiazole-4-carboxamide], in that order: 0.061 µM and over 20 µM.
For `CCc1ccccc1NC(=O)c1c(C)nsc1Nc1cc(NC)ncn1` [Example 15, N-(2-Ethylphenyl)-3-methyl-5-{[6-(methylamino)pyrimidin-4-yl]amino}-1,2-thiazole-4-carboxamide], in that order: 16 µM and over 20 µM.
